Consider 28 compounds from patent US7507730B2, “Substituted pyrazolo[1,5-a]pyrimidines as potassium channel activators” (Bristol-Myers Squibb Company, priority 2005, dated 2009).

Chain of Kv1.5 (P22460 whole entry): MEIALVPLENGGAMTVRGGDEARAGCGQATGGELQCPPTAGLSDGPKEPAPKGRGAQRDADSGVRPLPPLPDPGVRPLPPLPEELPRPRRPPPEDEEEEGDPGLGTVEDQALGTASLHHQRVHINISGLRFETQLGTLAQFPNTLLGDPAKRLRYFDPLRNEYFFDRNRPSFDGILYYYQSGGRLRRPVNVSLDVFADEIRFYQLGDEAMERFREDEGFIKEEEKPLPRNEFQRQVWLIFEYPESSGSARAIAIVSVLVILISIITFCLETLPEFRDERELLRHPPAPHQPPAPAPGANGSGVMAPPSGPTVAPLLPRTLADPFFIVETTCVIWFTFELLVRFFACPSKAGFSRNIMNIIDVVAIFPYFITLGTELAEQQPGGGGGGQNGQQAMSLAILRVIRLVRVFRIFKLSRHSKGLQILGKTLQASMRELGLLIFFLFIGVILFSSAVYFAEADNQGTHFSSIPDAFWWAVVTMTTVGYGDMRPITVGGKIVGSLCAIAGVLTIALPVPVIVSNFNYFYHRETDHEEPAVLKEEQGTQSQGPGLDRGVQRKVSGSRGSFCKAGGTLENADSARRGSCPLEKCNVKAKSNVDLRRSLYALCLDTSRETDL

One experiment deals with Kv1.5 (Homo sapiens, UniProt P22460). Nature of the experiment: Kv1.5 inhibition assay (IKur inhibitor assay per cited references). It counts as cell-based. The settings on record: at 0.3 μM. An excerpt:
Assays to determine the degree of activity of a compound as an IKur inhibitor are well known in the art and are described in references such as J. Gen. Physiol. Apr.; 101 (4):513-43, and Br. J. Pharmacol. 1995 May; 115(2):267-74.
Usually inhibition stands for the percentage by which the read-out fell short of the control. A higher inhibition goes with a strong effect. `CCCS(=O)(=O)N(C(=O)C1=C(C)Nc2cc(C(F)(F)F)nn2C1c1ccc(Cl)c(Cl)c1)C1CC1` (racemic) [Example 88, N-Cyclopropyl-7-(3,4-dichlorophenyl)-5-methyl-N-(propylsulfonyl)-2-(trifluoromethyl)-4,7-dihydropyrazolo[1,5-a]pyrimidine-6-carboxamide] gave an inhibition at 0.3 µM of 71%.

In turn, `CC1=C(C(=O)N(C)S(=O)(=O)c2ccc(Cl)cc2)C(c2ccc(Cl)c(Cl)c2)n2nc(C(F)(F)F)cc2N1` (racemic) [Example 89, N-(4-Chlorophenylsulfonyl)-7-(3,4-dichlorophenyl)-N,5-dimethyl-2-(trifluoromethyl)-4,7-dihydropyrazolo[1,5-a]pyrimidine-6-carboxamide] came in with an inhibition at 0.3 µM of 40%.

Regarding `Cc1nc2cc(C(F)(F)F)nn2c(-c2ccc(Cl)c(Cl)c2)c1C(=O)N(C)S(=O)(=O)c1ccccc1` (racemic) [Example 92, 7-(3,4-Dichlorophenyl)-N,5-dimethyl-N-(phenylsulfonyl)-2-(trifluoromethyl)pyrazolo[1,5-a]pyrimidine-6-carboxamide], the inhibition at 0.3 µM amounted to 41%.

The compound `CC1=C(S(=O)(=O)c2ccc(F)cc2)C(c2ccc(Cl)c(Cl)c2)n2nc(C)cc2N1` (single isomer, unassigned) [Example 1 Isomer 1, 7-(3,4-Dichlorophenyl)-6-(4-fluorophenylsulfonyl)-2,5-dimethyl-4,7-dihydropyrazolo[1,5-a]pyrimidine] displayed a Kv1.5% inhibition of 98%.

On to `CC1=C(S(=O)(=O)c2ccc(F)cc2)C(c2ccc(Cl)c(Cl)c2)n2nc(C)cc2N1` (single isomer, unassigned) [Example 1 Isomer 2, 7-(3,4-Dichlorophenyl)-6-(4-fluorophenylsulfonyl)-2,5-dimethyl-4,7-dihydropyrazolo[1,5-a]pyrimidine], for which the Kv1.5% inhibition was 48%.

The compound `CC1=C(S(=O)(=O)c2ccc(Cl)cc2)C(c2ccc(Cl)c(Cl)c2)n2nc(C(F)(F)F)cc2N1` (single isomer, unassigned) [Example 4 Isomer 2, 6-(4-Chlorophenylsulfonyl)-7-(3,4-dichlorophenyl)-5-methyl-2-(trifluoromethyl)-4,7-dihydropyrazolo[1,5-a]pyrimidine] gave an inhibition at 0.3 µM of 36.2%.

As for `CC1=C(S(=O)(=O)c2ccccc2)C(c2ccc(Cl)c(F)c2)n2nc(C)cc2N1` (single isomer, unassigned) [Example 7 Isomer 1, 7-(4-Chloro-3-fluorophenyl)-2,5-dimethyl-6-(phenylsulfonyl)-4,7-dihydropyrazolo[1,5-a]pyrimidine], the Kv1.5% inhibition is recorded as 90.8%.

In turn, `CC1=C(S(=O)(=O)c2ccccc2)C(c2ccc(Cl)c(F)c2)n2nc(C)cc2N1` (single isomer, unassigned) [Example 7 Isomer 2, 7-(4-Chloro-3-fluorophenyl)-2,5-dimethyl-6-(phenylsulfonyl)-4,7-dihydropyrazolo[1,5-a]pyrimidine] came in with a Kv1.5% inhibition of 32.4%.

The compound `CC1=C(S(=O)(=O)c2ccc(C(F)(F)F)cc2)C(c2ccc(Cl)c(Cl)c2)n2nc(C)cc2N1` (single isomer, unassigned) [Example 9 Isomer 2, 7-(3,4-Dichlorophenyl)-2,5-dimethyl-6-(4-(trifluoromethyl)phenylsulfonyl)-4,7-dihydropyrazolo[1,5-a]pyrimidine] gave an inhibition at 0.3 µM of 59.7%.

On to `CC1=C(S(=O)(=O)C2CCCCC2)C(c2ccc(Cl)c(Cl)c2)n2nc(C)cc2N1` (single isomer, unassigned) [Example 10 Isomer 2, 6-(Cyclohexylsulfonyl)-7-(3,4-dichlorophenyl)-2,5-dimethyl-4,7-dihydropyrazolo[1,5-a]pyrimidine], for which the inhibition at 0.3 µM is 59.3%.

With `CC1=C(S(=O)(=O)c2ccccn2)C(c2ccc(Cl)c(Cl)c2)n2nc(C)cc2N1` (single isomer, unassigned) [Example 11 Isomer 1, 7-(3,4-Dichlorophenyl)-2,5-dimethyl-6-(pyridin-2-ylsulfonyl)-4,7-dihydropyrazolo[1,5-a]pyrimidine], the Kv1.5% inhibition is reported as 72.5%.

For `CC1=C(S(=O)(=O)c2ccccn2)C(c2ccc(Cl)c(Cl)c2)n2nc(C)cc2N1` (single isomer, unassigned) [Example 11 Isomer 2, 7-(3,4-Dichlorophenyl)-2,5-dimethyl-6-(pyridin-2-ylsulfonyl)-4,7-dihydropyrazolo[1,5-a]pyrimidine], the Kv1.5% inhibition amounted to 21.5%.

The compound `COc1ccc(S(=O)(=O)C2=C(C)Nc3cc(C)nn3C2c2cccc(Cl)c2)cc1` (single isomer, unassigned) [Example 17 Isomer 2, 7-(3-Chlorophenyl)-6-(4-methoxyphenylsulfonyl)-2,5-dimethyl-4,7-dihydropyrazolo[1,5-a]pyrimidine] registered an inhibition at 0.3 µM of 18.1%.

For the compound `CCCCS(=O)(=O)C1=C(C)Nc2cc(C)nn2C1c1ccc(Cl)c(Cl)c1` (single isomer, unassigned) [Example 18 Isomer 1, 6-(Butylsulfonyl)-7-(3,4-dichlorophenyl)-2,5-dimethyl-4,7-dihydropyrazolo[1,5-a]pyrimidine], the Kv1.5% inhibition is listed as 84.6%.

The same experiment, now with this note: read-out: Kv1.5 IC50.
As usually defined, the IC50 is the concentration that gives 50% inhibition. On to `CC1=C(C(=O)N(C)S(=O)(=O)C(C)C)C(c2ccc(Cl)c(Cl)c2)n2nc(C(F)(F)F)cc2N1` (racemic) [Example 87, 7-(3,4-Dichlorophenyl)-N-(isopropylsulfonyl)-N,5-dimethyl-2-(trifluoromethyl)-4,7-dihydropyrazolo[1,5-a]pyrimidine-6-carboxamide], for which the IC50 came to 259 nM.

In the case of `CC1=C(S(=O)(=O)c2ccc(Cl)cc2)C(c2ccc(Cl)c(Cl)c2)n2nccc2N1` (single isomer, unassigned) [Example 2 Isomer 1, 6-(4-Chlorophenylsulfonyl)-7-(3,4-dichlorophenyl)-5-methyl-4,7-dihydropyrazolo[1,5-a]pyrimidine], the IC50 was determined as 92 nM.

For the compound `CC1=C(S(=O)(=O)c2ccc(Cl)cc2)C(c2ccc(Cl)c(Cl)c2)n2nccc2N1` (single isomer, unassigned) [Example 2 Isomer 2, 6-(4-Chlorophenylsulfonyl)-7-(3,4-dichlorophenyl)-5-methyl-4,7-dihydropyrazolo[1,5-a]pyrimidine], the half-maximal inhibitory concentration (IC50) is 37 nM.

With `CC1=C(S(=O)(=O)c2ccccc2)C(c2ccc(Cl)c(Cl)c2)n2nc(C)cc2N1` (single isomer, unassigned) [Example 3 Isomer 1, 7-(3,4-Dichlorophenyl)-2,5-dimethyl-6-(phenylsulfonyl)-4,7-dihydropyrazolo[1,5-a]pyrimidine], the concentration for half-maximal inhibition (IC50) is 41 nM.

`CC1=C(S(=O)(=O)c2ccccc2)C(c2ccc(Cl)c(Cl)c2)n2nc(C)cc2N1` (single isomer, unassigned) [Example 3 Isomer 2, 7-(3,4-Dichlorophenyl)-2,5-dimethyl-6-(phenylsulfonyl)-4,7-dihydropyrazolo[1,5-a]pyrimidine]: the 50% inhibitory concentration (IC50) was found to be 293 nM.

In the case of `CC1=C(S(=O)(=O)c2ccc(Cl)cc2)C(c2ccc(Cl)c(Cl)c2)n2nc(C(F)(F)F)cc2N1` (single isomer, unassigned) [Example 4 Isomer 1, 6-(4-Chlorophenylsulfonyl)-7-(3,4-dichlorophenyl)-5-methyl-2-(trifluoromethyl)-4,7-dihydropyrazolo[1,5-a]pyrimidine], the IC50 was determined as 180 nM.

For the compound `CC1=C(S(=O)(=O)c2ccc(C)cc2)C(c2ccc(Cl)c(Cl)c2)n2nc(C)cc2N1` (single isomer, unassigned) [Example 5 Isomer 1, 7-(3,4-Dichlorophenyl)-2,5-dimethyl-6-tosyl-4,7-dihydropyrazolo[1,5-a]pyrimidine], the IC50 came out at 48 nM.

Consider `CC1=C(S(=O)(=O)c2ccc(C)cc2)C(c2ccc(Cl)c(Cl)c2)n2nc(C)cc2N1` (single isomer, unassigned) [Example 5 Isomer 2, 7-(3,4-Dichlorophenyl)-2,5-dimethyl-6-tosyl-4,7-dihydropyrazolo[1,5-a]pyrimidine], for which the IC50 is 131 nM.

For the compound `COc1ccc(S(=O)(=O)C2=C(C)Nc3cc(C)nn3C2c2ccc(Cl)c(Cl)c2)cc1` (single isomer, unassigned) [Example 8 Isomer 1, 7-(3,4-Dichlorophenyl)-6-(4-methoxyphenylsulfonyl)-2,5-dimethyl-4,7-dihydropyrazolo[1,5-a]pyrimidine], the IC50 worked out at 23 nM.

For `COc1ccc(S(=O)(=O)C2=C(C)Nc3cc(C)nn3C2c2ccc(Cl)c(Cl)c2)cc1` (single isomer, unassigned) [Example 8 Isomer 2, 7-(3,4-Dichlorophenyl)-6-(4-methoxyphenylsulfonyl)-2,5-dimethyl-4,7-dihydropyrazolo[1,5-a]pyrimidine], the 50% inhibitory concentration (IC50) turned out to be 174 nM.

As to `CC1=C(S(=O)(=O)c2ccc(C(F)(F)F)cc2)C(c2ccc(Cl)c(Cl)c2)n2nc(C)cc2N1` (single isomer, unassigned) [Example 9 Isomer 1, 7-(3,4-Dichlorophenyl)-2,5-dimethyl-6-(4-(trifluoromethyl)phenylsulfonyl)-4,7-dihydropyrazolo[1,5-a]pyrimidine], the IC50 is 234 nM.

`CC1=C(S(=O)(=O)C2CCCCC2)C(c2ccc(Cl)c(Cl)c2)n2nc(C)cc2N1` (single isomer, unassigned) [Example 10 Isomer 1, 6-(Cyclohexylsulfonyl)-7-(3,4-dichlorophenyl)-2,5-dimethyl-4,7-dihydropyrazolo[1,5-a]pyrimidine]: the IC50 came to 77 nM.

Take `CC1=C(S(=O)(=O)c2ccc(F)cc2)C(c2ccc(Cl)c(Cl)c2)n2nc(C(F)(F)F)cc2N1` (single isomer, unassigned) [Example 12 Isomer 1, 7-(3,4-Dichlorophenyl)-6-(4-fluorophenylsulfonyl)-5-methyl-2-(trifluoromethyl)-4,7-dihydropyrazolo[1,5-a]pyrimidine]: the IC50 stood at 142 nM.

With `COc1ccc(S(=O)(=O)C2=C(C)Nc3cc(C)nn3C2c2cccc(Cl)c2)cc1` (single isomer, unassigned) [Example 17 Isomer 1, 7-(3-Chlorophenyl)-6-(4-methoxyphenylsulfonyl)-2,5-dimethyl-4,7-dihydropyrazolo[1,5-a]pyrimidine], the 50% inhibitory concentration (IC50) was found to be 256 nM.
